Results on one substance are retold here after patent publication US11298400B2, “Method of enhancing the therapeutic efficacy of fexapotide triflutate in treating LUTS” (Nymox Corporation, priority 2019, dated 2022).

Assay [1] concerns Patients with BPH and who optionally also had LUTS. Description: Clinical trial: nocturia score (IPSS question 7) mean change from baseline. To be noted: for improvement in nocturia score mean change from baseline: FT twice over at least one year; for Nocturia Score Mean Change From Baseline: intraprostatic, IPSS question 7, (SD). The format is in vivo, human. The text has this:
Improvements in obstructive and irritative symptoms can be measured in accordance with techniques known in the art. For example, uroflowmeters are known to differentiate urine weight change to provide a continuous plot of the flow rate vs. time that is smoothed by internal electronic filtering to permit precise (±5%) measurement of Qmax. Schafer W, et al. “Good urodynamic practices: Uroflowmetry, filling cystometry and pressure-flow studies,” Neurourol Urodynamics, Vol. 21, pp. 261-74 (2002). Nocturia can be measured in a variety of manners, most of which involve patients completing a questionnaire before and after treatment to establish a baseline, and then determine the difference (improvement, lack of improvement, worsening, etc.) from baseline after treatment. Exemplary questionnaires include evaluating the scores from the nocturia question included in the International Prostate Symptom Score (IPSS), assessing the number of nocturnal voids (Boyarsky symptom score), the Madsen-Iversen Symptom Score, and the ICSmale questionnaire. See, e.g., Chartier-Kastler, et al., “The Measurement of Nocturia and its Impact on Quality of Sleep and Quality of Life in LUTS/BPH,” Eur. Urol. Supp., Vol. 5, pp. 3-11 (2006). A preferred method of measuring nocturia is by determining the mean change from baseline of the nocturia question in the IPSS (question 7). Question 7 solicits from the patient how many times over the past month they had to get up to urinate from the time they went to bed until the time they got up—the score ranging from none (score 0) to 5 or more times (score 5).
(§1) Clinical trials were conducted on numerous individuals having BPH, some of whom also had LUTS. All protocols were done in accordance with applicable regulations, and carried out by physicians.
Patients with BPH and who optionally also had LUTS were given an intraprostatic injection of either a) FT2.5 in 10 mL phosphate buffered saline pH 7.2 (“PBS”) or b) FT 5.0 mg in PBS or c) FT 2.5 mg in PBS 2-dosages given >1 year apart, or d) PBS 10 mL alone, under double-blind conditions by a urologist in an office setting under ultrasound guidance. Patients were followed for >=3 months to several years with regular physical examinations, laboratory tests, and evaluations of symptoms. The mean difference from baseline nocturia scores to follow-up scores (nocturia scores are the values provided to question #7 in the IPSS) were calculated in FT treated subjects given single dose FT 2.5 mg, single dose FT 0.5 mg, 2-dose 2.5 mg>1 year apart, and Placebo treated controls.

Assay [2] deals with prostate glandular epithelial cells. As to the kind of experiment: Tissue culture genetic array, in vitro. The format is cell-based. To be noted: tissue culture genetic array data. From the text:
FT selectively causes loss of cell membrane integrity, mitochondrial metabolic arrest, depletion of RNA, DNA lysis and aggregation, and cell fragmentation and cell loss. The apoptotic process leads to typical ultrastructural progressive changes of membranous disruption and swelling, progressively deepening nuclear invaginations with eventual membranous bleb formations and cell death and fragmentation into apoptotic bodies. Histologically, typical apoptotic changes with positive immunohistochemical staining of markers for apoptosis are found throughout the injected areas for up to several weeks after treatment.

In assay [3] the test system is Patients with BPH and who optionally also had LUTS. Description: Clinical trial: inability to provide urine volume >125 mL (Qmax unable) after intraprostatic injection. To be noted: for improvement in percentage of patients with Qmax failures: FT twice over at least one year; for % of Patients With Inability to Provide Urine Volume >125 mL: intraprostatic. The format is in vivo, human. The method, then: as §1
Patients with BPH and who optionally also had LUTS were given an intraprostatic injection of either a) FT 2.5 mg in phosphate buffered saline pH 7.2 (“PBS”) or b) PBS alone, under double-blind conditions by a urologist in an office setting under ultrasound guidance. Patients were followed for >=3 months to several years with regular physical examinations, laboratory tests, and evaluations of symptoms. […] Subjects who were unable to void >=125 mL despite drinking as much water as they wanted were classified as “Qmax unable”. The numbers of subjects who became Qmax unable was compared in different groups.

For assay [4] the test system is unchanged. As to the kind of experiment: Clinical trial: urinary peak flow rate (Qmax) mean change from baseline. To be noted: for improvement in peak flow rate mean change from baseline: FT twice over at least one year; for Mean Change of Qmax from baseline: intraprostatic. The assay is classed as in vivo, human. The method, then: as §1
Patients were followed for >=3 months to several years with regular physical examinations, laboratory tests, and evaluations of symptoms. Urinary peak flow (Qmax) was measured by flow-meter readings using standard techniques, at 3 months and at 12 months or longer in subjects who were able to urinate adequate volume of urine (>125 mL) to provide a valid test. All peak flow measurements were assessed by a blinded central reader. The mean peak flow rate change from baseline was compared in different groups.

[5] abbreviates: Two Doses of 2.5 mg FT > 1 year apart.
[6] abbreviates: compared to a single administration of four times the amount.
Setting [7] is: compared to a single administration of twice the amount.

Marks after values point to notes of the source that are not given here. Ends that are not written are not given here.

Take “Fexapotide Triflutate (IDQQVLSRIKLEIKRCL; also: trifluoroacetate salt) [FT]”: the results for the “improvement in nocturia score mean change from baseline” value in assay [1] (compared to a single administration of the same individual amount), in assay [1] (compared to a single administration of twice the individual amount) and in assay [1] (compared to the control) were “about 37%”, “about 19.4%” and “about 48%”, respectively. For the same substance, the “Nocturia Score Mean Change From Baseline” value in assay [1] (Single Dose of 5.0 mg FT) is reported as −0.54 (SD 1.1)*; in assay [1] (Single Dose of 10.0 mg FT) it was −0.62 (SD 1.64)*; in assay [1] (setting [5]), −0.74 (SD 1.26)**, ***. The “effect on caspase, tumor necrosis factor and BCL pathways” value in assay [2] was “stimulates caspase pathways”. Moreover, the “inhibition of the progression of urinary flow worsening” value is given as “significantly better inhibition” in assay [3] (2 single dosages of 2.5 mg separated by >1 year, vs one-time 5.0 mg or 10.0 mg dose); “did not have significantly better response than single dose 2.5 mg” in assay [3] (double (two 2.5 mg doses) or 4X (four 2.5 mg doses) single dose, vs single dose 2.5 mg); “not significantly better than control groups” in assay [3] (single dose of FT 2.5 mg, after 3 months, vs control groups). Moreover, the “improvement in percentage of patients with Qmax failures” value in assay [3] (setting [6]) is recorded as “about 83.3%”; in assay [3] (setting [7]), “about 81.4%”; in assay [3] (compared to the control), “about 77%”. In addition, the “% of Patients With Inability to Provide Urine Volume >125 mL” value is listed as 21%* (90 days) in assay [3] (Single Dose of 5.0 mg FT, 90 days after last treatment); 23.3%** (90 days) in assay [3] (Single Dose of 10.0 mg FT, 90 days after last treatment); 3.9% (180 days) in assay [3] (Two Doses of 2.5 mg FT > 1 year apart, 180 days after last treatment). For the same substance, the entries for the “improvement in peak flow rate mean change from baseline” value in assay [4] (setting [6]), in assay [4] (setting [7]) and in assay [4] (compared to the control) were “about 47%”, “about 102%” and “about 111%”, respectively. For the same substance, the “Mean Change of Qmax from baseline” value turned out to be 1.28 mL/s in assay [4] (Single Dose of 5.0 mg FT), 1.76 mL/s in assay [4] (Single Dose of 10.0 mg FT) and 2.59 mL/s in assay [4] (setting [5]).
